Assays:
[1] = Particle size distribution by dynamic light scattering (Zetasizer); format: physicochemical; conditions: in length
Method: Results: Particle size distribution as determined by dynamic light scattering of Compound 1 lysine salt nanosuspension post milling is shown below in Table 1B. Samples for particle size distribution was prepared by diluting the Nano milled sample by 100-fold with Di-water. Zetasizer was utilized to measure particle size distribution. PdI is the representation of the distribution of size populations within a given sample. This is a numerical range from 0.0 (for a perfectly uniform sample) through 1.0 (for a highly polydisperse sample with multiple particle size populations). The value D10 refers to a diameter of particles in the sample wherein 10% of the particles in the sample have a diameter smaller than this value (118.8 nm). The value D50 refers to a diameter of particles in the sample wherein 50% of the particles have a diameter smaller than this value (249.0 nm). The value D90 refers to a diameter of particles in the sample wherein 90% of the particles in the sample have a diameter smaller than this value (611 nm).
The stability of the nanosuspension based on particle size distribution under refrigerated condition and room condition is shown below in Table 2.

[2] = In vitro dissolution testing (USP Apparatus 1, basket); format: physicochemical; conditions: DI water
Method: Dissolution and assay testing for API, F1, F7, F9, F10, F11 and F12.
• 6. Transfer 500 mL of DI water dissolution medium into each vessel. • 7. Equilibrate the dissolution medium to 37.0±0.5° C. • 8. Transfer 600 mg of each formulation granule into a capsule. • 9. Transfer a capsule into a basket and lower to the position. Start stirring at 100 RPM. • 10. At the stated time(s), sample 1 mL solutions by auto-sampler. Assay Sample Preparation (0.3 mg/mL): • 11. Weigh out 18 mg of granules into a […] volumetric flask. • 12. Dissolve and dilute up to the volume with Diluent (50% ACN in H2O). • 13. Mix well.

CC(C)c1ccc(N(C)c2ccc3c(c2)OCC[C@H]3CNc2cnccc2C(=O)O)cc1.NCCCC[C@H](N)C(=O)O [Compound 1 Lysine salt, 3-({[(4R)-7-{methyl[4-(propan-2-yl)phenyl]amino}-3,4-dihydro-2H-1-benzopyran-4-yl]methyl}amino)pyridine-4-carboxylic acid, L-lysine salt]
initial particle size prior to milling [1]: 6-15 micrometer | release after 120 minutes [2]: no release at all

Reference: patent publication US20250134874A1, “PHARMACEUTICAL FORMULATIONS COMPRISING 3-({[(4R)-7-{METHYL[4-(PROPAN-2-YL)PHENYL]AMINO}-3,4-DIHYDRO-2H-1-BENZOPYRAN-4-YL]METHYL}AMINO)PYRIDINE-4-CARBOXYLIC ACID” (TACHYON THERAPEUTICS, INC., priority 2021, published 2025)
